Assays:
[1] = 24 hour release of everolimus and pimecrolimus from dual-coated stent in porcine serum; assay type: physicochemical; settings: EVAL-based dual-coated 12 mm Vision stent
Experimental: Using the method set forth in Example 1, a 12 mm Vision™ stent was similarly coated with everolimus and pimecrolimus. The 24 hour release of everolimus and pimecrolimus in porcine serum was then measured using methods known in the art. […] For pimecrolimus, 12.4 μg of an expected 60.6 μg of pimecrolimus was released over 24 hours resulting in 20.5% release.

[2] = in vivo release from PVDF-HFP-based coated stent implanted in a pig; settings: PVDF-HFP matrix stent implanted in a pig, day 7
Experimental: A 12 mm Vision™ stent was cleaned in a bath of isopropyl alcohol and treated in a plasma cleaner to strip the top layer of molecules from the stent for better coat adhesion. The stent was then spray-coated with a primer solution consisting of 2% PBMA. The coated stent was dried in a convection oven at 80° C. for 0.5 hours.
The stent was then spray-coated with a drug reservoir solution consisting of PVDF-HFP, pimecrolimus and everolimus. A drug:polymer ratio of 1:3.5 of both pimecrolimus and everolimus to PVDF-HFP was used to coat the stent in order to obtain 64 μg of pimecrolimus and 64 μg of everolimus in the final coating. Spray coating parameters and the solvent were identical to those used for coating with the primer layer.
The stent was implanted in a pig and 1, 3 and 7 day release rates were obtained and compared with 24 hour release rates in porcine serum. […] By day 7, release of both drugs was 30%.

SMILES	% release over 24 hours [1] [%]	amount released over 24 hours [1] [µg]	in vivo percent release [2] [%]
CO[C@H]1C[C@@H]2CC[C@@H](C)[C@@](O)(O2)C(=O)C(=O)N2CCCC[C@H]2C(=O)O[C@H]([C@H](C)C[C@@H]2CC[C@@H](OCCO)[C@H](OC)C2)CC(=O)[C@H](C)/C=C(\C)[C@@H](O)[C@@H](OC)C(=O)[C@H](C)C[C@H](C)/C=C/C=C/C=C/1C [everolimus]	19.7	12.2	30
CC[C@@H]1/C=C(\C)C[C@H](C)C[C@H](OC)[C@H]2O[C@@](O)(C(=O)C(=O)N3CCCC[C@H]3C(=O)O[C@H](/C(C)=C/[C@@H]3CC[C@H](Cl)[C@H](OC)C3)[C@H](C)[C@@H](O)CC1=O)[C@H](C)C[C@@H]2OC [pimecrolimus]	20.5	12.4	30

From patent US20080004695A1, “EVEROLIMUS/PIMECROLIMUS-ELUTING IMPLANTABLE MEDICAL DEVICES” (Abbott Cardiovascular Systems Inc., priority 2006, published 2008)
